Data on 27 compounds can be found in patent US9062078B2, “Substituted 7-azabicyles and their use as orexin receptor modulators” (priority 2013, dated 2015).

The target in one test is human orexin 2 receptor (Homo sapiens (Human), UniProt O43614). As to the kind of experiment: Human orexin 2 receptor radioligand binding (competitive, [3H]-EMPA, HEK293 cell preparations).
A further test deals with rat orexin 1 receptor (Rattus norvegicus, UniProt P56718). As to the kind of experiment: Rat orexin 1 receptor radioligand binding (competitive, [3H]-SB674042, HEK293 cell preparations).
[1] abbreviates: human orexin 2 receptor, [3H]-EMPA competition binding, read-out: hOX2 Ki (nm).
Where [2] appears, read: rat orexin 1 receptor, [3H]-SB674042 competition binding, read-out: rOX1 Ki (nm).

Like-named read-outs stand apart in the source and are kept apart here.

human orexin 2 receptor, sequence (O43614 whole entry): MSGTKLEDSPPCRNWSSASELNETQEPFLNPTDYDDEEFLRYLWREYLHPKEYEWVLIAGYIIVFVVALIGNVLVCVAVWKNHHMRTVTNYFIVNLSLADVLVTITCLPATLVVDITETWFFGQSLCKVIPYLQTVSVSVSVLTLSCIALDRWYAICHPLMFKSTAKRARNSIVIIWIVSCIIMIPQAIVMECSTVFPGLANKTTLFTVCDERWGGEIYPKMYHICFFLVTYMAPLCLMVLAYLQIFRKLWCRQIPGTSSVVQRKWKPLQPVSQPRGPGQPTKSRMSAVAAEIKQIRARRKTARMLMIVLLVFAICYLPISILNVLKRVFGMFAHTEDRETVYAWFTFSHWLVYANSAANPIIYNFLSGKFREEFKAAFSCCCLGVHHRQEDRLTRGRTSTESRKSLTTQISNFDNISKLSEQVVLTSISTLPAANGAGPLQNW

As usually defined, the Ki is the dissociation constant of the complex between target and ligand, obtained from inhibition or displacement. For the compound `Cc1ccc(-c2ncco2)c(C(=O)N2C3CCC2C(COc2ncc(F)cn2)C3)n1` (racemic) [Example 100, (±)-(2-(((5-fluoropyrimidin-2-yl)oxy)methyl)-7-azabicyclo[2.2.1]heptan-7-yl)(6-methyl-3-(oxazol-2-yl)pyridin-2-yl)methanone], the values for the Ki on human orexin 2 receptor (setting [1]) and at rat orexin 1 receptor (setting [2]) were 1800 nM and 950 nM, respectively.

For `Cc1ccc(N2CCCC2)c(C(=O)N2C3CCC2C(COc2ncc(F)cn2)C3)n1` (racemic) [Example 101, (±)-(2-(((5-fluoropyrimidin-2-yl)oxy)methyl)-7-azabicyclo[2.2.1]heptan-7-yl)(6-methyl-3-(pyrrolidin-1-yl)pyridin-2-yl)methanone], the Ki at human orexin 2 receptor (setting [1]) came to 1200 nM; on rat orexin 1 receptor (setting [2]) it was 650 nM.

On to `Cc1cnn(-c2ccc(C)nc2C(=O)N2C3CCC2C(COc2ncc(F)cn2)C3)c1` (racemic) [Example 103, (±)-(2-(((5-fluoropyrimidin-2-yl)oxy)methyl)-7-azabicyclo[2.2.1]heptan-7-yl)(6-methyl-3-(4-methyl-1H-pyrazol-1-yl)pyridin-2-yl)methanone], for which the Ki came to 3600 nM on human orexin 2 receptor (hOX2 Ki (nm)) and 1700 nM at rat orexin 1 receptor (setting [2]).

As for `Cc1ccc(-n2cccn2)c(C(=O)N2C3CCC2C(COc2ncc(F)cn2)C3)n1` (racemic) [Example 104, (±)-(2-(((5-fluoropyrimidin-2-yl)oxy)methyl)-7-azabicyclo[2.2.1]heptan-7-yl)(6-methyl-3-(1H-pyrazol-1-yl)pyridin-2-yl)methanone], the figures for the Ki on human orexin 2 receptor (hOX2 Ki (nm)) and at rat orexin 1 receptor (rOX1 Ki (nm)) were 4600 nM and 1100 nM, respectively.

As for `COc1cccc(OC)c1C(=O)N1C2CCC1C(COc1ccc(F)cn1)C2` (racemic) [Example 106, (±)-(2,6-dimethoxyphenyl)(2-(((5-fluoropyridin-2-yl)oxy)methyl)-7-azabicyclo[2.2.1]heptan-7-yl)methanone], the inhibition constant Ki stood at 154 nM at human orexin 2 receptor (setting [1]) and 300 nM on rat orexin 1 receptor (setting [2]).

As for `O=C(c1ncc(Cl)cc1-n1nccn1)N1C2CCC1C(COc1ccc(F)cn1)C2` (racemic) [Example 112, (±)-(5-chloro-3-(2H-1,2,3-triazol-2-yl)pyridin-2-yl)(2-(((5-fluoropyridin-2-yl)oxy)methyl)-7-azabicyclo[2.2.1]heptan-7-yl)methanone], the Ki was determined as 1000 nM on human orexin 2 receptor (setting [1]) and 480 nM on rat orexin 1 receptor (setting [2]).

As for `COc1cnc(C(=O)N2C3CCC2C(COc2ccc(F)cn2)C3)c(-n2nccn2)c1` (racemic) [Example 113, (±)-(2-(((5-fluoropyridin-2-yl)oxy)methyl)-7-azabicyclo[2.2.1]heptan-7-yl)(5-methoxy-3-(2H-1,2,3-triazol-2-yl)pyridin-2-yl)methanone], the Ki on human orexin 2 receptor (setting [1]) was determined as 4800 nM; at rat orexin 1 receptor (setting [2]), 3400 nM.

Regarding `CCOc1ccc(C)nc1C(=O)N1C2CCC1C(COc1ccc(F)cn1)C2` (racemic) [Example 118, (±)-(3-ethoxy-6-methylpyridin-2-yl)(2-(((5-fluoropyridin-2-yl)oxy)methyl)-7-azabicyclo[2.2.1]heptan-7-yl)methanone], the Ki is 2200 nM at human orexin 2 receptor (setting [1]) and 440 nM at rat orexin 1 receptor (setting [2]).

`COc1ccc(C(=O)N2C3CCC2C(COc2ccc(F)cn2)C3)c(-n2nccn2)c1` (racemic) [Example 119, (±)-(2-(((5-fluoropyridin-2-yl)oxy)methyl)-7-azabicyclo[2.2.1]heptan-7-yl)(4-methoxy-2-(2H-1,2,3-triazol-2-yl)phenyl)methanone]: the results for the inhibition constant Ki on human orexin 2 receptor (setting [1]) and at rat orexin 1 receptor (setting [2]) were 1300 nM and 500 nM, respectively.

On to `Cc1cccc(-c2ncccn2)c1C(=O)N1C2CCC1C(COc1ccc(F)cn1)C2` (racemic) [Example 123, (±)-(2-(((5-fluoropyridin-2-yl)oxy)methyl)-7-azabicyclo[2.2.1]heptan-7-yl)(2-methyl-6-(pyrimidin-2-yl)phenyl)methanone], for which the Ki is 286 nM at human orexin 2 receptor (setting [1]) and 400 nM at rat orexin 1 receptor (rOX1 Ki (nm)).

On to `CCOc1nccc(C)c1C(=O)N1C2CCC1C(COc1ccccn1)C2` (racemic) [Example 155, (±)-(2-ethoxy-4-methylpyridin-3-yl)(2-((pyridin-2-yloxy)methyl)-7-azabicyclo[2.2.1]heptan-7-yl)methanone], for which the Ki was 3600 nM on human orexin 2 receptor (setting [1]) and 1570 nM on rat orexin 1 receptor (rOX1 Ki (nm)).

With `Cc1nc2sccn2c1C(=O)N1C2CCC1C(COc1ccccn1)C2` (racemic) [Example 156, (±)-(6-methylimidazo[2,1-b]thiazol-5-yl)(2-((pyridin-2-yloxy)methyl)-7-azabicyclo[2.2.1]heptan-7-yl)methanone], the Ki at human orexin 2 receptor (setting [1]) and on rat orexin 1 receptor (setting [2]) was > 10000 nM each time.

In the case of `CCOc1nc(C)ccc1C(=O)N1C2CCC1C(COc1ccccn1)C2` (racemic) [Example 158, (±)-(2-ethoxy-6-methylpyridin-3-yl)(2-((pyridin-2-yloxy)methyl)-7-azabicyclo[2.2.1]heptan-7-yl)methanone], the values for the Ki at human orexin 2 receptor (setting [1]) and on rat orexin 1 receptor (setting [2]) were 1780 nM and 2930 nM, respectively.

As to `O=C(c1c(O)ccc2cccnc12)N1C2CCC1C(COc1ccccn1)C2` (racemic) [Example 159, (±)-(7-hydroxyquinolin-8-yl)(2-((pyridin-2-yloxy)methyl)-7-azabicyclo[2.2.1]heptan-7-yl)methanone], the Ki is 786 nM at human orexin 2 receptor (setting [1]) and 262 nM at rat orexin 1 receptor (setting [2]).

`CCOc1ncc(-c2ccccc2)cc1C(=O)N1C2CCC1C(COc1ccccn1)C2` (racemic) [Example 160, (±)-(2-ethoxy-5-phenylpyridin-3-yl)(2-((pyridin-2-yloxy)methyl)-7-azabicyclo[2.2.1]heptan-7-yl)methanone]: the Ki is > 10000 nM at human orexin 2 receptor (setting [1]) and 8700 nM at rat orexin 1 receptor (setting [2]).

`CCOc1nccc(Br)c1C(=O)N1C2CCC1C(COc1ccccn1)C2` (racemic) [Example 161, (±)-(4-bromo-2-ethoxypyridin-3-yl)(2-((pyridin-2-yloxy)methyl)-7-azabicyclo[2.2.1]heptan-7-yl)methanone]: the results for the inhibition constant (Ki) at human orexin 2 receptor (hOX2 Ki (nm)) and at rat orexin 1 receptor (setting [2]) were 1450 nM and 478 nM, respectively.

For `CCOc1ccnc(Cl)c1C(=O)N1C2CCC1C(COc1ccccn1)C2` (racemic) [Example 162, (±)-(2-chloro-4-ethoxypyridin-3-yl)(2-((pyridin-2-yloxy)methyl)-7-azabicyclo[2.2.1]heptan-7-yl)methanone], the Ki at human orexin 2 receptor (setting [1]) was > 10000 nM; at rat orexin 1 receptor (setting [2]), 8500 nM.

For the compound `O=C(c1cc(F)ccc1-n1nccn1)N1C2CCC1C(CNc1cnc3ccccc3n1)C2` (racemic) [Example 174, (±)-(5-fluoro-2-(2H-1,2,3-triazol-2-yl)phenyl)(2-((quinoxalin-2-ylamino)methyl)-7-azabicyclo[2.2.1]heptan-7-yl)methanone], the Ki at human orexin 2 receptor (setting [1]) came to 1000 nM; at rat orexin 1 receptor (setting [2]), 373 nM.

Regarding `Cc1ccc(-c2ncccn2)c(C(=O)N2C3CCC2C(COc2ncc(F)cn2)C3)n1` (racemic) [Example 175, (±)-(2-(((5-fluoropyrimidin-2-yl)oxy)methyl)-7-azabicyclo[2.2.1]heptan-7-yl)(6-methyl-3-(pyrimidin-2-yl)pyridin-2-yl)methanone], the Ki on human orexin 2 receptor (setting [1]) was determined as 4000 nM; at rat orexin 1 receptor (rOX1 Ki (nm)), 2500 nM.

For `Cc1coc(-c2ccc(C)nc2C(=O)N2C3CCC2C(COc2ccc(F)cn2)C3)n1` (racemic) [Example 177, (±)-(2-(((5-fluoropyridin-2-yl)oxy)methyl)-7-azabicyclo[2.2.1]heptan-7-yl)(6-methyl-3-(4-methyloxazol-2-yl)pyridin-2-yl)methanone], the Ki was 4000 nM on human orexin 2 receptor (setting [1]) and 535 nM at rat orexin 1 receptor (setting [2]).

`Cc1cnc(C(=O)N2C3CCC2C(Nc2cnc(C(F)(F)F)cn2)C3)c(-n2ccnn2)c1` (racemic) [Example 185, (±)-(5-methyl-3-(1H-1,2,3-triazol-1-yl)pyridin-2-yl)(2-(5-(trifluoromethyl)pyrazin-2-yl)amino)-7-azabicyclo[2.2.1]heptan-7-yl)methanone]: the Ki at human orexin 2 receptor (setting [1]) was found to be 2700 nM; on rat orexin 1 receptor (setting [2]) it was 1500 nM.

As to `Cc1cnc(C(=O)N2C3CCC2C(Nc2ccc(C(F)(F)F)cn2)C3)c(-n2nccn2)c1` (racemic) [Example 188, (±)-(5-methyl-3-(2H-1,2,3-triazol-2-yl)pyridin-2-yl)(2-(5-(trifluoromethyl)pyridin-2-yl)amino)-7-azabicyclo[2.2.1]heptan-7-yl)methanone], the Ki on human orexin 2 receptor (setting [1]) came out at 1500 nM; at rat orexin 1 receptor (rOX1 Ki (nm)), 295 nM.

On to `Cc1ccc(C(=O)N2C3CCC2C(Nc2ccc(C(F)(F)F)cn2)C3)c(-n2nccn2)n1` (racemic) [Example 189, (±)-(6-methyl-2-(2H-1,2,3-triazol-2-yl)pyridin-3-yl)(2-(5-(trifluoromethyl)pyridin-2-yl)amino)-7-azabicyclo[2.2.1]heptan-7-yl)methanone], for which the Ki was 1500 nM on human orexin 2 receptor (hOX2 Ki (nm)) and 766 nM on rat orexin 1 receptor (setting [2]).

With `Cc1ccc(C(=O)N2C3CCC2C(Nc2ccc(C(F)(F)F)cn2)C3)c(-n2ccnn2)n1` (racemic) [Example 190, (±)-(6-methyl-2-(1H-1,2,3-triazol-1-yl)pyridin-3-yl)(2-(5-(trifluoromethyl)pyridin-2-yl)amino)-7-azabicyclo[2.2.1]heptan-7-yl)methanone], the Ki at human orexin 2 receptor (setting [1]) was determined as 1200 nM; at rat orexin 1 receptor (rOX1 Ki (nm)), 589 nM.

For the compound `COc1ccc(C(=O)N2C3CCC2C(Nc2ccc(C(F)(F)F)cn2)C3)c(-n2nccn2)c1` (racemic) [Example 191, (±)-(4-methoxy-2-(2H-1,2,3-triazol-2-yl)phenyl)(2-(5-(trifluoromethyl)pyridin-2-yl)amino)-7-azabicyclo[2.2.1]heptan-7-yl)methanone], the Ki at human orexin 2 receptor (setting [1]) stood at 8800 nM; at rat orexin 1 receptor (rOX1 Ki (nm)), 257 nM.

For the compound `COc1c(F)cccc1C(=O)N1C2CCC1C(Nc1ccc(C(F)(F)F)cn1)C2` (racemic) [Example 193, (±)-((3-fluoro-2-methoxyphenyl)(2-(5-(trifluoromethyl)pyridin-2-yl)amino)-7-azabicyclo[2.2.1]heptan-7-yl)methanone], the results for the Ki at human orexin 2 receptor (setting [1]) and at rat orexin 1 receptor (setting [2]) were > 10000 nM and 2900 nM, respectively.

Take `CCOc1ccc(C)nc1C(=O)N1C2CCC1C(Nc1ccc(C(F)(F)F)cn1)C2` (racemic) [Example 194, (±)-(3-ethoxy-6-methylpyridin-2-yl)(2-(5-(trifluoromethyl)pyridin-2-yl)amino)-7-azabicyclo[2.2.1]heptan-7-yl)methanone]: the Ki at human orexin 2 receptor (setting [1]) is 800 nM; on rat orexin 1 receptor (rOX1 Ki (nm)), 450 nM.
